In patent US11149019B2, “Phenylpyridine derivative and pharmaceutical composition comprising the same” (Daewoong Pharmaceutical Co., Ltd., priority 2017, dated 2021):

How the values were obtained:
[1] = target: T1, BTK (Homo sapiens, UniProt Q06187); assay: ADP-Glo + BTK Kinase enzyme system kit, inhibitory activity against BTK; format: biochemical; conditions: BTK enzyme 1 ng/ul, ATP 10 μM, 30° C. for 1 hour, luminescence, duplicate
T1 construct: purchased Promega Corporation
Procedure: (§1) Inhibitory activities against BTK and ITK were measured for the compounds prepared in the above Examples as follows.
The inhibitory activities against BTK were evaluated using ‘ADP-Glo™+BTK Kinase enzyme system’ kit (Promega Corporation). In a white 96-well plate, 10 ul of BTK enzyme prepared so as to have a final concentration of 1 ng/ul was mixed with 5 μl of compounds having a final concentration of […] the case of evaluating a single concentration of compound and a concentration of 1000, 300, 100, 30, 10, 3, 1, 0.3, 0.1 and 0.03 nM in the case of IC50 evaluation, and then reacted at room temperature for 15 minutes. 5 ul of substrate and 5 ul of ATP prepared so as to have a final concentration of 10 μM were added to the plate on which reactions were completed, and then allowed to react at 30° C. for 1 hour. All wells of the plate were treated with 25 ul of ADP-Glo™ reagent and allowed to react at 30° C. for 40 minutes. After that, all wells were treated with 50 ul of kinase detection buffer, and then reacted at 30° C. for 30 minutes under light shielding conditions. For the plate on which all reactions were completed, luminescence was measured and the results were calculated. Evaluation was carried out in duplicate, and negative control and positive control were calculated depending on whether or not the enzyme was added without treatment of the compound. The IC50 was calculated based on the calculated values.

[2] = target: T2, ITK (Homo sapiens, UniProt Q08881); assay: ADP-Glo + ITK Kinase enzyme system kit, inhibitory activity against ITK; format: biochemical; conditions: ITK enzyme 0.4 ng/ul, ATP final concentration of 25 ul, 30° C. for 1 hour, luminescence, duplicate
T2 construct: purchased Promega Corporation
T2 sequence (Q08881 1-620): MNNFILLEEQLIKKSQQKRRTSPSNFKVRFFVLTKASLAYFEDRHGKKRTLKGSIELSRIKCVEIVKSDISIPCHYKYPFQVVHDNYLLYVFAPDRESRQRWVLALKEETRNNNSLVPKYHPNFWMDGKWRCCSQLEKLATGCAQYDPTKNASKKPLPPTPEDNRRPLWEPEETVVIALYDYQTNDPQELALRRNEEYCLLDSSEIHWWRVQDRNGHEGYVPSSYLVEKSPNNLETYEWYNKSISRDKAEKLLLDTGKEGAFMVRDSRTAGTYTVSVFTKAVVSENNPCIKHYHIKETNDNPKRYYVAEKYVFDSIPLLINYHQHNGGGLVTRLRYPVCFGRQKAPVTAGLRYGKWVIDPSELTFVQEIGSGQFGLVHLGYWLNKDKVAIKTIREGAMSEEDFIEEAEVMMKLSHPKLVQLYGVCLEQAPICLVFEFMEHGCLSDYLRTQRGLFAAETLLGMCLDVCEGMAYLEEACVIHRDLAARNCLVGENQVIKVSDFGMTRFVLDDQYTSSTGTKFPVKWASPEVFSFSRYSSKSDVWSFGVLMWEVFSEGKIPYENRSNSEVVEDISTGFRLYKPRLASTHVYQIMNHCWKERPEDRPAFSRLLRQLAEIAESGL
Procedure: as §1
The inhibitory activity against ITK was evaluated using ‘ADP-Glo™+ITK Kinase enzyme system’ kit (Promega Corporation). In a white 96-well plate, 10 ul of ITK enzyme prepared so as to have a final concentration of 0.4 ng/ul was mixed with 5 ul of compounds having a final concentration of 1 uM in the case of evaluating a single concentration of compound and a concentration of 1000, 300, 100, 30, 10, 3, 1, 0.3, 0.1 and 0.03 nM in the case of IC50 evaluation, and then reacted at room temperature for 15 minutes. To the plate on which reactions were completed, 5 ul of substrate and 5 ul of ATP prepared so as to have a final concentration of […] added and then allowed to react at 30° C. for 1 hour. All wells of the plate were treated with 25 ul of ADP-Glo™ reagent and then allowed to react at 30° C. for 40 minutes. After that, all wells were treated with 50 ul of kinase detection buffer, and then allowed to react at 30° C. for 30 minutes under light shielding conditions. For the plate on which all reactions were completed, luminescence was measured and the results were calculated. Evaluation was carried out in duplicate, and negative control and positive control were calculated depending on whether or not the enzyme was added without treatment of the compound. The IC50 was calculated based on the calculated values.

T1 sequence (Q06187 whole entry): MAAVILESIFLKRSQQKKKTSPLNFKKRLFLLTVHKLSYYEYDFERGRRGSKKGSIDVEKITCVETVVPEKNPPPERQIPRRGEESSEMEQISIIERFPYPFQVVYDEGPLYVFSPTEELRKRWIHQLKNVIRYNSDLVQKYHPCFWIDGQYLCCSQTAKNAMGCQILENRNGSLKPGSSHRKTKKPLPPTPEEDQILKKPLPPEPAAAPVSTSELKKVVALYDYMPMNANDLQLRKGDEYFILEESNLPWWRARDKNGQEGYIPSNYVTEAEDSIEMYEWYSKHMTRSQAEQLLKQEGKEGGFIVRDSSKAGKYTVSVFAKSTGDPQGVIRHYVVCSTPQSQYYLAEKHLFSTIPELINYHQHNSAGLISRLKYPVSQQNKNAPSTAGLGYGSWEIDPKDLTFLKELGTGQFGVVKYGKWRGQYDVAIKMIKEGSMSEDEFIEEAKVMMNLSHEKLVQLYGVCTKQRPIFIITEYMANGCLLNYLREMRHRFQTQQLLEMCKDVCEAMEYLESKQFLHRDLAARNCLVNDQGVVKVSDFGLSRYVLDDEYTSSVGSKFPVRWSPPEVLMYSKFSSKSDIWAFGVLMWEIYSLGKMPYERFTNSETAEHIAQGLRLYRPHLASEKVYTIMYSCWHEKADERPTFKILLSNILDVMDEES

SMILES	IC50 [1] [nM]	IC50 [2] [nM]
C=CC(=O)Nc1cccc(-c2cc(C(=O)N3CCOCC3)cc(Nc3cc(C4CC4)[nH]n3)n2)c1 [Compound 28, N-(3-(6-(5-cyclopropyl-1H-pyrazol-3-ylamino)-4-(morpholine-4-carbonyl)pyridin-2-yl)phenyl)acrylamide]	310	68.1
C=CC(=O)Nc1cccc(-c2cc(C(=O)N3CCOCC3)cc(Nc3cc(C)[nH]n3)n2)c1 [Compound 31, N-(3-(6-((5-methyl-1H-pyrazol-3-yl)amino)-4-(morpholine-4-carbonyl)pyridin-2-yl)phenyl)acrylamide]	17.6	56.9
C=CC(=O)Nc1cccc(-c2cc(CN3CCOCC3)cc(Nc3ncc(C(=O)Nc4c(C)cccc4Cl)s3)n2)c1 [Compound 33, 2-((6-(3-acrylamidophenyl)-4-(morpholinomethyl)pyridin-2-yl)amino)-N-(2-chloro-6-methylphenyl)thiazole-5-carboxamide]	1.9	> 1000
C=CC(=O)Nc1cccc(-c2cc(CN3CC(C)OC(C)C3)cc(Nc3ncc(C)s3)n2)c1 (centres unmarked) [Compound 34]	2.4	3.1
C=CC(=O)Nc1cccc(-c2cc(N(C)C)cc(Nc3ncc(C)s3)n2)c1 [Compound 35, N-(3-(4-(dimethylamino)-6-((5-methylthiazol-2-yl)amino)pyridin-2-yl)phenyl)acrylamide]	> 400	> 1000
C/C=C/C(=O)Nc1cccc(-c2cc(Cc3ccccc3)cc(Nc3cc(C)[nH]n3)n2)c1 [Compound 38, (E)-N-(3-(4-benzyl-6-(5-methyl-1H-pyrazol-3-ylamino)pyridin-2-yl)phenyl)but-2-enamide]	> 400	536
C=CC(=O)Nc1cccc(-c2cc(CN3CCOCC3)cc(Nc3cc(C)on3)n2)c1 [Compound 40, N-(3-(6-((5-methylisoxazol-3-ylamino)-4-(morpholino)methyl)pyridin-2-yl)phenyl)acrylamide]	> 400	> 1000
C=CC(=O)Nc1cccc(-c2cc(CN3CCOCC3)cc(NC(=O)C3CC3)n2)c1 [Compound 42, N-(6-(3-acrylamidophenyl)-4-(morpholinomethyl)pyridin-2-yl)cyclopropanecarboxamide]	> 400	> 1000
C=CC(=O)Nc1cccc(-c2cc(CN3CCN(CCO)CC3)cc(Nc3ncc(C)s3)n2)c1 [Compound 43, N-(3-(4-((4-(2-hydroxyethyl)piperazin-1-yl)methyl)-6-(5-methylthiazol-2-ylamino)pyridin-2-yl)phenyl)acrylamide]	2.3	2.1
C=CC(=O)Nc1cccc(-c2cc(CN3CCN(C4CC4)CC3)cc(Nc3ncc(C)s3)n2)c1 [Compound 45, N-(3-(4-((4-cyclopropylpiperazin-1-yl)methyl)-6-((5-methylthiazol-2-yl)amino)pyridin-2-yl)phenyl)acrylamide]	3	2.1
C=CC(=O)Nc1cccc(-c2cc(CN3C[C@@H](C)O[C@@H](C)C3)cc(Nc3ncc(C)s3)n2)c1 [Compound 46, N-(3-(4-(((2S,6R)-2,6-dimethylmorpholino)methyl)-6-(5-methylthiazol-2-ylamino)pyridin-2-yl)phenyl)acrylamide]	1.7	1.6
C=CC(=O)Nc1cccc(-c2cc(CN3CCN(CCC)CC3)cc(Nc3ncc(C)s3)n2)c1 [Compound 48, N-(3-(6-((5-methylthiazol-2-yl)amino)-4-((4-propylpiperazin-1-yl)methyl)pyridin-2-yl)phenyl)acrylamide]	1.1	4.3
C=CC(=O)Nc1cccc(-c2cc(CN3CCN(CCOC)CC3)cc(Nc3ncc(C)s3)n2)c1 [Compound 49, N-(3-(4-((4-(2-methoxyethyl)piperazin-1-yl)methyl)-6-(5-methylthiazol-2-ylamino)pyridin-2-yl)phenyl)acrylamide]	1.3	3.1
C=CC(=O)Nc1cccc(-c2cc(CN3CCN(CC(F)(F)F)CC3)cc(Nc3ncc(C)s3)n2)c1 [Compound 50, N (3(6(5methylthiazol-2-ylamino)-4-((4-(2,2,2-trifluoroethyl)piperazin-1-yl)methyl)pyridin-2-yl)phenyl)acrylamide]	2.2	5

Now from value to compound:

IC50 [1] [nM]	IC50 [2] [nM]	SMILES
5.2	18.6	C=CC(=O)Nc1cccc(-c2cc(C(=O)N3CCOCC3)cc(Nc3ncc(C)s3)n2)c1 [Compound 29, N-(3-(6-((5-methylthiazol-2-yl)amino)-4-(morpholine-4-carbonyl)pyridin-2-yl)phenyl)acrylamide]
3.1	4.3	C=CC(=O)Nc1cccc(-c2cc(CN3CCOCC3)cc(Nc3ncc(C)s3)n2)c1 [Compound 30, N (3(6(5-methylthiazol-2-ylamino)-4-(morpholinomethyl)pyridin-2-yl)phenyl)acrylamide]
> 100	394	C=CC(=O)Nc1cccc(-c2cc(N3CCOCC3)cc(Nc3ncc(C)s3)n2)c1 [Compound 36, N-(3-(6-((5-methylthiazol-2-yl)amino)-4-morpholinopyridin-2-yl)phenyl)acrylamide]
0.9	5.5	C=CC(=O)Nc1cccc(-c2cc(CN3CCN(C)CC3)cc(Nc3ncc(C)s3)n2)c1 [Compound 37, N-(3-(4-((4-methylpiperazin-1-yl)methyl)-6-(5-methylthiazol-2-ylamino)pyridin-2-yl)phenyl)acrylamide]
252	> 1000	C=CC(=O)Nc1cccc(-c2cc(CN3CCOCC3)cc(Nc3nnc(C)s3)n2)c1 [Compound 39, N-(3-(6-(5-methyl-1,3,4-thiadiazol-2-ylamino)-4-(morpholinomethyl)pyridin-2-yl)phenyl)acrylamide]
> 400	> 1000	C=CC(=O)Nc1cccc(-c2cc(CN3CCOCC3)cc(Nc3nnc(C)o3)n2)c1 [Compound 41, N-(3-(6-((5-methyl-1,3,4-oxadiazol-2-yl)amino)-4-(morpholinomethyl)pyridin-2-yl)phenyl)acrylamide]
2	12	C=CC(=O)Nc1cccc(-c2cc(CN3CCOCC3)cc(Nc3ncns3)n2)c1 [Compound 44, N-(3-(6-((1,2,4-thiadiazol-5-yl)amino)-4-(morpholinomethyl)pyridin-2-yl)phenyl)acrylamide]
3	8.2	C=CC(=O)Nc1cccc(-c2cc(CN3CCCC3)cc(Nc3ncc(C)s3)n2)c1 [Compound 47, N-(3-(6-((5-methylthiazol-2-yl)amino)-4-(pyrrolidin-1-ylmethyl)pyridin-2-yl)phenyl)acrylamide]
5.2	2.2	C=CC(=O)Nc1cccc(-c2cc(CN3CCOCC3)cc(Nc3ncc(C(F)(F)F)s3)n2)c1 [Compound 51]
1.9	2.2	C=CC(=O)Nc1ccc(F)c(-c2cc(CN3CCOCC3)cc(Nc3ncc(C)s3)n2)c1 [Compound 52]
2.3	3.8	C=CC(=O)Nc1cccc(-c2cc(CN3CCN(CC)CC3)cc(Nc3ncc(C)s3)n2)c1 [Compound 53, N-(3-(4-((4-ethylpiperazin-1-yl)methyl)-6-(5-methylthiazol-2-yl)amino)pyridin-2-yl)phenylacrylamide]
